Holding throughout (experiment): 3' UTR reporter interaction score (median-centred robust z-score of log2 firefly/Renilla activity); higher = less repression of the 3' UTR reporter
Details in all cases: HEK293T; 48 h

Series [1] has as its system MYB. Summed up:
(§1)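 For the interaction score, the firefly/Renilla ratio was log-transformed, expressed as a robust z-score per plate using median and median absolute deviation, and median-centred per miRNA; a more negative score indicates interaction. These scores come from at least two independent screens, averaged. Each screen used HEK293T cells at 10,000/well in 96-well plates, co-transfected with DharmaFECT Duo carrying 100 ng luc2P 3' UTR reporter, 20 ng pRL-TK and 2.5 pmol miRNA mimic, with luciferase read at 48 h.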

Series [2] deals with NOTCH1. In short, it runs like this:
as §1

Series [3] has as its system HRAS. Summed up:
as §1

In series [4] the test system is BRCA2. Summed up: as §1
Series [5] relates to PHOX2B. In short, it runs like this: as §1
Series [6] relates to MYC. Summed up:
as §1

For series [7], the system named is FBXW7. Summed up: as §1
For series [8], the system named is MYT1L. In short, it runs like this:
as §1

Series [9] deals with PHF6. In short, it runs like this: as §1
For series [10], the system named is MYCN. Summed up: as §1
Series [11] has as its system EZH2. In short, it runs like this: as §1
Series [12] has as its system TP53. In short, it runs like this: as §1
Series [13] deals with ZEB2. Summed up:
as §1

Series [14] has as its system RB1. In short, it runs like this: as §1

Turning to CACACACUGCAAUUACUUUUGC, the “3' UTR reporter interaction score” value in series [1] was -0.132; in series [2] it was -1.12; in series [3] it was 0.537; in series [4], 1.28; in series [5], 0.662; in series [6], 0.144. The “3' UTR reporter interaction score” value was -1.17 in [7]; 0.0502 in [8]; -0.242 in series [9]; 0.192 in series [10]; 0.0197 in series [11]; 0.266 in [12]. The figures for the “3' UTR reporter interaction score” value in series [13] and in [14] were -2.35 and -0.83, respectively.

On to CACCCGUAGAACCGACCUUGCG, for which the “3' UTR reporter interaction score” value in [1] is 0.655; in series [2] it was -0.125; in series [3], 0.575; in series [4], 0.615; in [5], -3.87; in series [6], 0.596. Further, the “3' UTR reporter interaction score” value in series [7] is 0.377; in [8], -0.00069; in series [9], -0.967; in series [10], -0.0242; in series [11], -0.866; in [12], -0.17. In addition, the “3' UTR reporter interaction score” value in series [13] is -1.09; in [14], -0.00577.

Consider CACUCAGCCUUGAGGGCACUUUC, for which the “3' UTR reporter interaction score” value in series [1] is 1.11; in series [2] it was 0.801; in series [3], -0.0814; in [4], 0.623; in series [5], 0.0189; in series [6], -1.6. The “3' UTR reporter interaction score” value was -1.64 in series [7]; -1.55 in series [8]; -4 in [9]; 1.12 in series [10]; 0.269 in series [11]; 0.0719 in [12]. The “3' UTR reporter interaction score” value turned out to be 0.556 in series [13] and 0.059 in series [14].

On to CAGCAGCAAUUCAUGUUUUGAA, for which the “3' UTR reporter interaction score” value in series [1] is -2.05; in [2], 0.0853; in series [3] it was -0.93; in series [4], 0.886; in [5] it was 1.12; in series [6], -0.0621. The “3' UTR reporter interaction score” value in series [7] was -2.64; in [8], -4.35; in [9] it was 2.81; in series [10] it was -0.622; in [11] it was -0.709; in [12], 0.52. The “3' UTR reporter interaction score” value was determined as 0.626 in series [13] and 0.649 in series [14].

As to CAGCAGCACACUGUGGUUUGU, the “3' UTR reporter interaction score” value was -2.62 in series [1]; -0.283 in series [2]; -1.05 in series [3]; 0.267 in [4]; 0.464 in series [5]; 0.347 in series [6]. Also, the “3' UTR reporter interaction score” value in series [7] was -2.99; in [8], -4.01; in [9] it was 1.13; in series [10], -0.42; in series [11] it was -1.21; in [12] it was -0.308. Moreover, the “3' UTR reporter interaction score” value is 1.1 in [13] and -0.141 in [14].

With CAGUAACAAAGAUUCAUCCUUGU, the “3' UTR reporter interaction score” value in series [1] was 0.361; in series [2], -0.945; in [3], 0.555; in [4] it was -0.621; in [5], -1.19; in [6], -0.308. Also, the “3' UTR reporter interaction score” value was -0.152 in series [7]; -0.326 in [8]; -3.72 in series [9]; 1.32 in [10]; 0.69 in [11]; -0.52 in series [12]. Moreover, the “3' UTR reporter interaction score” value in series [13] was 0.308; in series [14] it was -3.18.

Turning to CAGUGCAAUGAUGAAAGGGCAU, the “3' UTR reporter interaction score” value in series [1] was -1.75; in [2], 0.857; in series [3] it was -0.234; in series [4], -0.463; in series [5] it was -0.853; in series [6], 0.674. Besides, the “3' UTR reporter interaction score” value in series [7] is 0.958; in [8], 0.286; in series [9], 0.644; in series [10], 1.64; in [11], -0.471; in series [12], -0.295. Moreover, the “3' UTR reporter interaction score” value in series [13] was -0.474; in series [14], 1.03.

With CAGUGCAAUGUUAAAAGGGCAU, the “3' UTR reporter interaction score” value in [1] was -1.89; in [2] it was 0.727; in [3], -0.0408; in series [4] it was -0.00105; in series [5], 0.897; in series [6] it was 0.265. In addition, the “3' UTR reporter interaction score” value in [7] is 0.774; in series [8] it was -0.334; in series [9] it was 0.0914; in series [10], 1.42; in [11] it was -0.606; in [12] it was -0.31. Further, the results for the “3' UTR reporter interaction score” value in series [13] and in series [14] were -0.231 and 1.55, respectively.

Take CAUAAAGUAGAAAGCACUAC: the “3' UTR reporter interaction score” value was -0.0675 in series [1]; 0.3 in [2]; -0.266 in [3]; 0.352 in series [4]; 0.845 in series [5]; 0.0993 in series [6]. Besides, the “3' UTR reporter interaction score” value in [7] was -0.553; in series [8] it was -0.385; in series [9], -0.673; in series [10] it was -0.0538; in series [11], -0.0463; in series [12] it was -0.122. Further, the “3' UTR reporter interaction score” value is -0.00923 in series [13] and 0.941 in series [14].

CAUCCCUUGCAUGGUGGAGGGU: the “3' UTR reporter interaction score” value in series [1] was 0.193; in [2] it was 0.0724; in [3] it was -0.474; in [4] it was -0.755; in [5] it was -0.0949; in series [6] it was 0.286. Also, the “3' UTR reporter interaction score” value in [7] is -2.06; in [8] it was -1.78; in series [9], -0.203; in series [10], 1.03; in [11], 0.459; in series [12] it was 0.105. For the same sequence, the figures for the “3' UTR reporter interaction score” value in series [13] and in [14] were -1.03 and -1.51, respectively.

These data come from the supplement of paper PMC5844555.
